PubChem BioAssay AID2511 (Broad Institute, 2010)

The compounds below were run on human washed platelets, SFLLRN-induced P-selectin, flow cytometry (assay: PAR1 agonist-induced platelet activation inhibition – cell-based, fluorescence, flow cytometry, human platelets, dose response (AID 2511)). Details: retest run 2.

Compound	EC50 [µM]
CCC(=O)Nc1cccc(NC(=O)c2ccccc2Br)c1	< 3
Cc1ccc(-n2c(N)c(C#N)c(-c3ccccc3)c(C#N)c2=O)cc1	< 3
CCCC(=O)Nc1cccc(NC(=O)c2ccccc2Br)c1	< 1
CCCCC(=O)Nc1cccc(NC(=O)c2ccccc2Br)c1	< 10
O=C(Nc1cccc(NC(=O)c2ccccc2Cl)c1)c1ccco1	< 1
